Laboratory results reported in patent publication US20240245711A1, “A 19-NOR C3,3-DISUBSTITUTED C21-N-PYRAZOLYL STEROID FOR THE TREATMENT OF MAJOR DEPRESSIVE DISORDER” (Sage Therapeutics, Inc., priority 2021, published 2024).
Where “and” joins values, the source holds several entries; their conditions need not be identical. Equal entries are not always repeated.

System: adult subjects with Major Depressive Disorder
Assay: Phase 3 open-label 1-year study: need for re-treatment (number of and time to re-treatments)
Assay type: in vivo, human
Details: for Subjects with No re-treatment (Cycle 1), n (%) / Subjects with Only 1 re-treatment (Cycle 2), n (%) / Subjects with Only 2 re-treatment (Cycle 3), n (%) / Subjects with Only 3 re-treatment (Cycle 4), n (%) / Subjects with Only 4 re-treatment (Cycle 5), n (%): FAS; for Time to re-treatment, Mean (SD): Low Dose Cohort (FAS)
From the text: Secondary Objective: To assess the need for re-treatment with Compound (1) following initial treatment in adults with MDD currently experiencing an MDE over a 1-year period, and to assess the response of initial treatment and re-treatment(s) with Compound (1) following an initial 2-week treatment period in adults with MDD currently experiencing an MDE over a 1-year period.
Secondary Endpoints: The need for re-treatment with Compound (1) as assessed by: time to first re-treatment (Kaplan-Meier curves), number of subjects achieving the requirements for re-treatment, number of re-treatment cycles for each subject, the response of initial treatment and/or re-treatment as assessed by: change from baseline in the 17-item Hamilton Rating Scale for Depression (HAM-D) total score at the end of each 14-day treatment (initial and/or re-treatment) period, HAM-D response at the end of each 14-day treatment (initial and/or re-treatment) period, defined as a ≥50% reduction in HAM-D score from baseline, HAM-D remission at the end of each 14-day treatment (initial and/or re-treatment) period, defined as HAM-D total score≤7, Clinical Global Impression-Improvement (CGI-I) response, defined as “much improved” or “very much improved”, at the end of each 14-day treatment (initial and/or re-treatment) period, change from baseline in Clinical Global Impression-Severity (CGI-S) score at the end of each 14-day treatment (initial and/or re-treatment) period.
Subjects who continued in the Observation Period were monitored remotely via PHQ-9 assessment every two weeks. If PHQ-9 score was >=10 at any assessment, PHQ-9 assessment was switch to every week until the score came down below 10 or the subject was dosed with Compound (1) in a subsequent cycle, whichever was earlier. A subject was to come back to the site for HAM-D assessment within a week of PHQ-9 score >=10; if the HAM-D total score >=20 and at least 56 days had elapsed since the last dose of Compound (1), another dosing cycle of Compound (1) were to start. If any of these criteria were not met, the subject couldn't be treated with Compound (1) at that time. Without the trigger of PHQ-9>=10 the subject was to have a clinic visit every 8 weeks. A subject could have at most 5 cycles of treatment within a year. FIG. 2 is a depiction of the eligibility criteria of the study.
The cohorts pertaining to the different doses that the subjects received were defined as following: • 50 mg cohort: This cohort includes subjects who have initiated treatment with 50 mg and received re-treatment with 50 mg only. • 30 mg cohort: This cohort includes subjects who have initiated treatment with 30 mg regardless of the dose they have received in re-treatments. • Low dose cohort: This cohort includes subjects who have initiated treatment with 30 mg and received re-treatment with 30 mg only. • Dose switch cohort: This cohort includes subjects who have received initial treatment with 30 mg and at least one subsequent re-treatment with 50 mg. • Study Period X: starts on the date of the first dose of Compound (1) in cycle X and goes up to one day prior to the first dose of the next cycle. In some embodiments, X is any number from 1 to 5. • Treatment Period X: starts on the date of the first dose of Compound (1) in cycle X and goes up to one day after the last dose in cycle X. In some embodiments, X is any number from 1 to 5. • Treatment Cycle X: starts on the date of the first dose of Compound (1) in cycle X and goes up to 14 days after the last dose in cycle X. The treatment cycles may be denoted as C1-C5. • Observation period X: starts the day after Treatment Cycle X ends and goes up to one day prior to the start of next treatment cycle. In some embodiments, X is any number from 1 to 5.
Analysis Sets: The safety set was defined as all subjects who were administered study drug. The period-specific safety set includes subjects in the safety set who were administered study drug in the corresponding treatment cycle. […]

[1] = ATD Use at Baseline = No, 30 mg Cohort (N = 280)
[2] = ATD Use at Baseline = No, 50 mg Cohort (N = 86)
[3] = ATD Use at Baseline = Yes, 30 mg Cohort (N = 209)
[4] = ATD Use at Baseline = Yes, 50 mg Cohort (N = 60)

`C[C@@]1(O)CC[C@H]2[C@H](CC[C@@H]3[C@@H]2CC[C@]2(C)[C@@H](C(=O)Cn4cc(C#N)cn4)CC[C@@H]32)C1` [Compound (1), 1-(2-((3R,5R,8R,9R,10S,13S,14S,17S)-3-hydroxy-3,13-dimethylhexadecahydro-1H-cyclopenta[a]phenanthren-17-yl)-2-oxoethyl)-1H-pyrazole-4-carbonitrile] was tested, and the “Time to re-treatment since last dose in previous cycle, Median” value (Cycle 5, Dose Switch (FAS)) was 58 days, the “Time to re-treatment since last dose in previous cycle, Min - Max” value (Cycle 5, Dose Switch (FAS)) was 57 to 79 days and the “n/N: FAS subjects eligible and dosed in Cycle X / eligible for dosing in Cycle X” value (Cycle 5, Low Dose) was 20/34. The “Time to re-treatment since last dose in previous cycle, Mean (SD)” value (Cycle 5, Low Dose (FAS)) was 63.2 (7.42) Days, the “Time to re-treatment since last dose in previous cycle, Median” value (Cycle 5, Low Dose (FAS)) was 60.5 days and the “Time to re-treatment since last dose in previous cycle, Min - Max” value (Cycle 5, Low Dose (FAS)) was 58 to 86 days. For the same compound, the “Dosed in at least 1 re-treatment cycle, % of eligible” value (Dose Switch (80 eligible)) was 80 (100%), the “Qualified to be retreated in at least 1 more cycle (HAM-D total score >= 20), % of eligible” value (Dose Switch (80 eligible)) was 80 (100%) and the “Subjects with No re-treatment (Cycle 1), n (%) of FAS” value (Dose Switch (N = 80)) was 0%. The “Subjects with Only 1 re-treatment (Cycle 2), n (%) of FAS” value (Dose Switch (N = 80)) was 9 (11.3%), the “Subjects with Only 2 re-treatment (Cycle 3), n (%) of FAS” value (Dose Switch (N = 80)) was 18 (22.5%) and the “Subjects with Only 3 re-treatment (Cycle 4), n (%) of FAS” value (Dose Switch (N = 80)) was 30 (37.5%). The “Subjects with Only 4 re-treatment (Cycle 5), n (%) of FAS” value (Dose Switch (N = 80)) was 23 (28.8%), the “Average (range) number of re-treatments per subject over 1-year follow-up” value (Dose Switch Cohort) was 2.8 (1-4) and the “FAS Subjects Dosed in C2, n (%) of FAS” value (Dose Switch Cohort) was 80 (100%). The “FAS Subjects dosed in C3, n (%) of FAS” value (Dose Switch Cohort) was 71 (88.8%), the “FAS Subjects dosed in C4, n (%) of FAS” value (Dose Switch Cohort) was 53 (66.3%) and the “FAS Subjects dosed in C5, n (%) of FAS” value (Dose Switch Cohort) was 23 (28.8%). The “Subjects with No re-treatment (Cycle 1), n (%)” value [1] was 114 (40.7%), the “Subjects with Only 1 re-treatment (Cycle 2), n (%)” value [1] was 80 (28.6%) and the “Subjects with Only 2 re-treatment (Cycle 3), n (%)” value [1] was 31 (11.1%). The “Subjects with Only 3 re-treatment (Cycle 4), n (%)” value [1] was 33 (11.8%), the “Subjects with Only 4 re-treatment (Cycle 5), n (%)” value [1] was 22 (7.9%) and the “Subjects with No re-treatment (Cycle 1), n (%)” value [2] was 72 (83.7%). The “Subjects with Only 1 re-treatment (Cycle 2), n (%)” value [2] was 13 (15.1%), the “Subjects with Only 2 re-treatment (Cycle 3), n (%)” value [2] was 1 (1.2%) and the “Subjects with Only 3 re-treatment (Cycle 4), n (%)” value [2] was 0%. The “Subjects with Only 4 re-treatment (Cycle 5), n (%)” value [2] was 0%, the “Subjects with No re-treatment (Cycle 1), n (%)” value [3] was 96 (45.9%) and the “Subjects with Only 1 re-treatment (Cycle 2), n (%)” value [3] was 45 (21.5%). The “Subjects with Only 2 re-treatment (Cycle 3), n (%)” value [3] was 27 (12.9%), the “Subjects with Only 3 re-treatment (Cycle 4), n (%)” value [3] was 20 (9.6%) and the “Subjects with Only 4 re-treatment (Cycle 5), n (%)” value [3] was 21 (10.0%). The “Subjects with No re-treatment (Cycle 1), n (%)” value [4] was 48 (80.0%), the “Subjects with Only 1 re-treatment (Cycle 2), n (%)” value [4] was 12 (20.0%) and the “Subjects with Only 2 re-treatment (Cycle 3), n (%)” value [4] was 0%. The “Dosed in at least 1 re-treatment cycle, % of eligible” value (Low Dose (199 of 392 eligible)) was 199 0.8%) and 199 (0.8%), the “Qualified to be retreated in at least 1 more cycle (HAM-D total score >= 20), % of eligible” value (Low Dose (392 eligible)) was 225 (57.4%) and the “Subjects with No re-treatment (Cycle 1), n (%) of FAS” value (Low Dose (N = 409)) was 210 (51.3%). For the same compound, the “Subjects with Only 1 re-treatment (Cycle 2), n (%) of FAS” value (Low Dose (N = 409)) was 116 (28.4%), the “Subjects with Only 2 re-treatment (Cycle 3), n (%) of FAS” value (Low Dose (N = 409)) was 40 (9.8%) and 40 (9.7%) and the “Subjects with Only 3 re-treatment (Cycle 4), n (%) of FAS” value (Low Dose (N = 409)) was 23 (5.6%). For the same compound, the “Subjects with Only 4 re-treatment (Cycle 5), n (%) of FAS” value (Low Dose (N = 409)) was 20 (4.9%), the “Average (range) number of re-treatments per subject over 1-year follow-up” value (Low Dose Cohort) was 0.8 (0-4) and 0.8 and the “Average total number of treatments per subject” value (Low Dose Cohort) was 1.8. For the same compound, the “Effect of antidepressant use on length of time between re-treatments” value (Low Dose Cohort) was “did not make much difference”, the “FAS Subjects Dosed in C2, n (%) of FAS” value (Low Dose Cohort) was 199 (48.7%) and the “FAS Subjects dosed in C3, n (%) of FAS” value (Low Dose Cohort) was 83 (20.3%). For the same compound, the “FAS Subjects dosed in C4, n (%) of FAS” value (Low Dose Cohort) was 43 (10.5%), the “FAS Subjects dosed in C5, n (%) of FAS” value (Low Dose Cohort) was 20 (4.9%) and the “Time to re-treatment, Mean (SD)” value (dosed in Cycle 2, ATD use at baseline of previous cycle No) was 97.2 (49.59) Days and 97.2 Days. For the same compound, the “Time to re-treatment, Mean (SD)” value (dosed in Cycle 2, ATD use at baseline of previous cycle Yes) was 103.3 (56.26) Days and 103.3 Days, the “Time to re-treatment, Mean (SD)” value (dosed in Cycle 3, ATD use at baseline of previous cycle No) was 88.4 (37.52) Days and 88.4 Days and the “Time to re-treatment, Mean (SD)” value (dosed in Cycle 3, ATD use at baseline of previous cycle Yes) was 85.9 (32.14) Days and 85.9 Days. For the same compound, the “Time to re-treatment, Mean (SD)” value (dosed in Cycle 4, ATD use at baseline of previous cycle No) was 73.0 (18.40) Days and 73.0 Days, the “Time to re-treatment, Mean (SD)” value (dosed in Cycle 4, ATD use at baseline of previous cycle Yes) was 71.1 (17.21) Days and 71.1 Days and the “Time to re-treatment, Mean (SD)” value (dosed in Cycle 5, ATD use at baseline of previous cycle No) was 61.9 (3.28) Days and 61.9 Days. For the same compound, the “Time to re-treatment, Mean (SD)” value (dosed in Cycle 5, ATD use at baseline of previous cycle Yes) was 64.5 (10.09) Days and 64.5 Days, the “Re-treatment rates with and without pre-existing antidepressant therapy” value (in vivo) was “similar” and the “Mean (range) number of total treatment courses” value (overall study population) was 1.8 (1-5). For the same compound, the “Patients not requiring additional treatment courses during their time in the study” value (overall study population) was 43.7%.
